The assay has as its system colorectal cancer cell lines (e.g. DLD-1, HCT 116, SW620, HCT-15, HCT-8, RKO). As to the kind of experiment: Cell based assay, cell viability (CellTiter-Glo), colorectal cancer cell lines. On the procedure: Commercially available bladder cancer, prostate cancer, lung cancer, breast cancer, blood cancer, pancreatic cancer, colorectal cancer, brain cancer, neuroblastoma, melanoma, liver cancer, cervical carcinoma, ovarian cancer, renal cancer, and papilloma cell lines were each treated with trypsin-EDTA and cultured, followed by being seeded in each well of a 96 well plate. After 24 hours of treatment at constant temperature, the respective cells were treated with the candidate compound so that a final concentration became 0 to 2 μM. The treated cells were additionally cultured for 72 hours, and cell viability was measured by using an ATP detection method (CellTiter-Glo® Luminescent Cell Viability Assay, Promega).
In general terms: Cellular ATP, detected with luciferase, serves as a proxy for viable cell number.

Setting [1] is: Homo sapiens, DLD-1, 72 hours treatment, read-out: IC50, colorectal cancer cell line DLD-1.
Setting [2] is: Homo sapiens, HCT 116, 72 hours treatment, read-out: IC50, colorectal cancer cell line HCT 116.
Setting [3] is: Homo sapiens, HCT-8, 72 hours treatment, read-out: IC50, colorectal cancer cell line HCT-8.
The mark [4] stands for this setting: Homo sapiens, HCT-15, 72 hours treatment, read-out: IC50, colorectal cancer cell line HCT-15.
Setting [5] is: Homo sapiens, HT-29, 72 hours treatment, read-out: IC50, colorectal cancer cell line HT-29.
Where [6] appears, read: Homo sapiens, LoVo, 72 hours treatment, read-out: IC50, colorectal cancer cell line LoVo.
The mark [7] stands for this setting: Homo sapiens, SW480, 72 hours treatment, read-out: IC50, colorectal cancer cell line SW480.
The mark [8] stands for this setting: Homo sapiens, SW-620, SW620, 72 hours treatment, read-out: IC50, colorectal cancer cell line SW620.
[9] abbreviates: RKO, 72 hours treatment, read-out: IC50, colorectal cancer cell line RKO.

Usually IC50 stands for the concentration that inhibits the measured activity by half.

Where two headings read alike, the source gives them in different places.

`CC(=O)c1c(S(C)(=O)=O)n(C(=O)c2ccc(Br)cc2)c2c(Br)ccc(Cl)c2c1=O` [Compound 21, 3-acetyl-8-bromo-1-(4-bromobenzoyl)-5-chloro-2-(methylsulfonyl)quinolin-4(1H)-one]: the IC50 runs as follows: under setting [1], above 2 µM; under setting [2], above 2 µM; under setting [3], above 2 µM; under setting [4], above 2 µM; under setting [5], above 10 µM; under setting [6], above 2 µM. The IC50 under setting [7] is above 2 µM, the IC50 under setting [8] is above 2 µM and the IC50 under setting [9] was above 2 µM.

Turning to `CC(=O)c1c([S+](C)[O-])n(Cc2ccc(F)c(Cl)c2)c2c(Br)ccc(Cl)c2c1=O` (stereo not drawn) [Compound 22, 3-acetyl-8-bromo-5-chloro-1-(3-chloro-4-fluorobenzyl)-2-(methylsulfinyl)quinolin-4(1H)-one], the IC50 is above 2 µM under setting [1]; above 2 µM under setting [2]; above 2 µM under setting [3]; above 2 µM under setting [4]; above 10 µM under setting [5]; above 2 µM under setting [6]. In addition, the IC50 reads like this: under setting [7], above 2 µM; under setting [8], above 2 µM; under setting [9], above 2 µM.

For `CC(=O)c1c(SCc2ccccc2)n(C(=O)c2ccc(Br)cc2)c2c(Br)ccc(Cl)c2c1=O` [Compound 23, 3-acetyl-2-(benzylthio)-8-bromo-1-(4-bromobenzoyl)-5-chloroquinolin-4(1H)-one], the half-inhibitory concentration (IC50) was above 2 µM under setting [1]; above 2 µM under setting [2]; above 2 µM under setting [3]; above 2 µM under setting [4]; above 10 µM under setting [5]; above 2 µM under setting [6]. Moreover, the IC50 was above 2 µM under setting [7], above 2 µM under setting [8] and above 2 µM under setting [9].

With `CC(=O)c1c(SC(C)C)[nH]c2c(Br)ccc(Cl)c2c1=O` [Compound 24, 3-acetyl-8-bromo-5-chloro-2-(isopropylthio)quinolin-4(1H)-one], the 50% inhibitory concentration (IC50) reads like this: under setting [1], above 2 µM; under setting [2], above 2 µM; under setting [3], above 2 µM; under setting [4], above 2 µM; under setting [5], above 10 µM; under setting [6], above 2 µM. Besides, the IC50 reads like this: under setting [7], above 2 µM; under setting [8], above 2 µM; under setting [9], above 2 µM.

In the case of `CC(=O)c1c([S+]([O-])C(C)C)[nH]c2c(Br)ccc(Cl)c2c1=O` (stereo not drawn) [Compound 25, 3-acetyl-8-bromo-5-chloro-2-(isopropylsulfinyl)quinolin-4(1H)-one], the IC50 under setting [1] is above 2 µM; the IC50 under setting [2] is above 2 µM; the IC50 under setting [3] is above 2 µM; the IC50 under setting [4] is above 2 µM; the IC50 under setting [5] is above 10 µM; the concentration for half-maximal inhibition (IC50) under setting [6] is above 2 µM. Further, the IC50 under setting [7] was above 2 µM, the IC50 under setting [8] is above 2 µM and the IC50 under setting [9] is above 2 µM.

As for `CC(=O)c1c([S+]([O-])C(C)c2ccccc2)[nH]c2c(Br)ccc(Cl)c2c1=O` (stereo not drawn) [Compound 26, 3-acetyl-8-bromo-5-chloro-2-((1-phenylethyl)sulfinyl)quinolin-4(1H)-one], the IC50 was above 2 µM under setting [1]; above 2 µM under setting [2]; above 2 µM under setting [3]; above 2 µM under setting [4]; above 10 µM under setting [5]; above 2 µM under setting [6]. Moreover, the IC50 under setting [7] was above 2 µM, the IC50 under setting [8] was above 2 µM and the IC50 under setting [9] turned out to be 1.79 µM.

For `CC(=O)c1c(SCc2cccc(C#N)c2)[nH]c2c(Br)ccc(Cl)c2c1=O` [Compound 27, 3-(((3-acetyl-8-bromo-5-chloro-4-oxo-1,4-dihydroquinolin-2-yl)thio)methyl)benzonitrile], the IC50 under setting [1] is above 2 µM; the IC50 under setting [2] was above 2 µM; the IC50 under setting [3] was above 2 µM; the IC50 under setting [4] was above 2 µM; the IC50 under setting [5] was above 10 µM; the IC50 under setting [6] was above 2 µM. Besides, the IC50 under setting [7] was above 2 µM, the IC50 under setting [8] was above 2 µM and the half-maximal inhibitory concentration (IC50) under setting [9] was above 2 µM.

Consider `CC(=O)c1c([S+]([O-])Cc2cccc(C#N)c2)[nH]c2c(Br)ccc(Cl)c2c1=O` (stereo not drawn) [Compound 28, 3-(((3-acetyl-8-bromo-5-chloro-4-oxo-1,4-dihydroquinolin-2-yl)sulfinyl)methyl)benzonitrile], for which the IC50 runs as follows: under setting [1], 0.94 µM; under setting [2], 0.96 µM; under setting [3], 1.3 µM; under setting [4], 1.06 µM; under setting [5], above 10 µM; under setting [6], 1.9 µM. Besides, the IC50 reads like this: under setting [7], 1.22 µM; under setting [8], 1.09 µM; under setting [9], 1.09 µM.

Take `CC(=O)c1c(SCc2ccc(F)c(Cl)c2)[nH]c2c(Br)ccc(Cl)c2c1=O` [Compound 30, 3-acetyl-8-bromo-5-chloro-2-((3-chloro-4-fluorobenzyl)thio)quinolin-4(1H)-one]: the IC50 by setting is: under setting [1], above 2 µM; under setting [2], above 2 µM; under setting [3], above 2 µM; under setting [4], above 2 µM; under setting [5], above 10 µM; under setting [6], above 2 µM. Besides, the IC50 is above 2 µM under setting [7], above 2 µM under setting [8] and above 2 µM under setting [9].

Turning to `CC(=O)c1c(SCc2ccc([N+](=O)[O-])cc2)[nH]c2c(Br)ccc(Cl)c2c1=O` [Compound 32, 3-acetyl-8-bromo-5-chloro-2-((4-nitrobenzyl)thio)quinolin-4(1H)-one], the IC50 is above 2 µM under setting [1]; above 2 µM under setting [2]; above 2 µM under setting [3]; above 2 µM under setting [4]; above 10 µM under setting [5]; above 2 µM under setting [6]. Moreover, the IC50 was above 2 µM under setting [7], above 2 µM under setting [8] and above 2 µM under setting [9].

`CSc1c(C(C)=O)c(=O)c2c(Cl)ccc(Br)c2n1S(C)(=O)=O` [Compound 35, 3-acetyl-8-bromo-5-chloro-1-(methylsulfonyl)-2-(methylthio)quinolin-4(1H)-one]: the IC50 by setting is: under setting [1], above 2 µM; under setting [2], above 2 µM; under setting [3], above 2 µM; under setting [4], above 2 µM; under setting [5], above 10 µM; under setting [6], above 2 µM. Also, the IC50 by setting is: under setting [7], above 2 µM; under setting [8], above 2 µM; under setting [9], above 2 µM.

As to `CC(=O)c1c([S+](C)[O-])n(S(=O)(=O)C(F)(F)F)c2c(Br)ccc(Cl)c2c1=O` (stereo not drawn) [Compound 36, 3-acetyl-8-bromo-5-chloro-2-(methylsulfinyl)-1-((trifluoromethyl)sulfonyl)quinolin-4(1H)-one], the IC50 was above 2 µM under setting [1]; above 2 µM under setting [2]; above 2 µM under setting [3]; above 2 µM under setting [4]; above 10 µM under setting [5]; above 2 µM under setting [6]. For the same compound, the IC50 runs as follows: under setting [7], above 2 µM; under setting [8], above 2 µM; under setting [9], above 2 µM.

For the compound `CSc1c(C(C)=O)c(=O)c2c(Cl)ccc(Br)c2n1S(=O)(=O)c1ccc(Cl)cc1` [Compound 37, 3-acetyl-8-bromo-5-chloro-1-((4-chlorophenyl)sulfonyl)-2-(methylthio)quinolin-4(1H)-one], the half-inhibitory concentration (IC50) by setting is: under setting [1], above 2 µM; under setting [2], above 2 µM; under setting [3], above 2 µM; under setting [4], above 2 µM; under setting [5], above 10 µM; under setting [6], above 2 µM. The IC50 is, setting by setting: under setting [7], above 2 µM; under setting [8], above 2 µM; under setting [9], above 2 µM.

For the compound `CSc1c(C(C)=O)c(=O)c2c(Cl)ccc(Br)c2n1S(=O)(=O)c1ccc([N+](=O)[O-])cc1` [Compound 38, 3-acetyl-8-bromo-5-chloro-2-(methylthio)-1-((4-nitrophenyl)sulfonyl)quinolin-4(1H)-one], the IC50 under setting [1] was above 2 µM; the half-inhibitory concentration (IC50) under setting [2] was above 2 µM; the IC50 under setting [3] was above 2 µM; the IC50 under setting [4] is above 2 µM; the IC50 under setting [5] is above 10 µM; the IC50 under setting [6] was above 2 µM. Also, the IC50 is above 2 µM under setting [7], above 2 µM under setting [8] and above 2 µM under setting [9].

Take `CCS(=O)(=O)n1c([S+](C)[O-])c(C(C)=O)c(=O)c2c(Cl)ccc(Br)c21` (stereo not drawn) [Compound 39, 3-acetyl-8-bromo-5-chloro-1-(ethylsulfonyl)-2-(methylsulfinyl)quinolin-4(1H)-one]: the IC50 under setting [1] was above 2 µM; the IC50 under setting [2] was above 2 µM; the IC50 under setting [3] is above 2 µM; the IC50 under setting [4] was above 2 µM; the concentration for half-maximal inhibition (IC50) under setting [5] is above 10 µM; the IC50 under setting [6] is above 2 µM. For the same compound, the IC50 is, setting by setting: under setting [7], above 2 µM; under setting [8], above 2 µM; under setting [9], above 2 µM.

The values above are taken from patent US11464770B2, “Anticancer pharmaceutical composition” (NATIONAL CANCER CENTER, priority 2016, dated 2022).
